Measured values as given in patent EP4775567A1, “IONIZABLE CATIONIC LIPID COMPOUNDS AS WELL AS PREPARATION METHOD THEREFOR AND USE THEREOF” (Scindy Pharmaceutical (Suzhou) Co., Ltd, priority 2023, dated 2025).

How the values were obtained:
[1] = Particle size and polydispersity index (PDI) by dynamic light scattering; format: physicochemical; settings: luciferase mRNA lipid nanoparticles prepared from the compound; 25°C
Protocol: (§1) Luciferase mRNA was diluted in a 10-100 mM sodium citrate buffer solution at pH 4.0, with the concentration of the mRNA solution being 135 µg/ml. A mixed lipid ethanol solution was prepared at a molar ratio of ionizable cationic lipid compound (each exemplary compound) : DSPC: cholesterol : 2-[(polyethylene glycol)-2000]-N,N-ditetradecylacetamide (ALC-0159) of 50:10:38.5:1.5. The mRNA solution and the mixed lipid solution were mixed at a volume ratio of 3:1 in a nanodrug preparation device, followed by ultrafiltration to obtain luciferase mRNA lipid nanoparticles.
(§2) • 1. Determination of particle size and polydispersity index (PDI): The average particle size and PDI of the nanoparticle sample solutions in the examples were determined by dynamic light scattering using Malvern ZetaSizer Nano ZS90. The measurement angle was 90°, the refractive index of the dispersant was 1.330, and the test temperature was 25°C. • 2. Zeta potential: The Zeta potential of the nanoparticle sample solutions in the examples was determined by electrophoretic light scattering (ELS) using Malvern ZetaSizer Nano ZS90. Refractive index of the dispersant: 1.330, Test temperature: 25°C. • 3. Encapsulation Rate: The Encapsulation Rate of luciferase mRNA in lipid nanoparticles was determined using a Quant-it Ribogreen RNA quantitation kit (ThermoFisher Scientific, UK) in accordance with the manufacturer's instructions.

[2] = Zeta potential by electrophoretic light scattering; format: physicochemical; settings: luciferase mRNA lipid nanoparticles prepared from the compound; 25°C
Protocol: as §1, §2

[3] = Encapsulation Rate of luciferase mRNA in lipid nanoparticles (Quant-it Ribogreen RNA kit); format: physicochemical; settings: luciferase mRNA in lipid nanoparticles prepared from the compound
Protocol: as §1, §2

[4] = tested on: HEK 293T cells; assay: In vitro transfection efficiency of luciferase mRNA lipid nanoparticles (luciferase activity); format: cell-based; settings: for HEK 293T Cell Luciferase Activity: 100 ng dose, 96-well plate, 24 h incubation, luciferase mRNA lipid nanoparticles
Protocol: as §1
HEK-293T cells were used to evaluate the in vitro transfection efficiency of lipid nanoparticle compositions prepared from each exemplary compound. HEK293T cells were routinely cultured in DMEM + 10% FBS medium to ensure the cells were in the logarithmic growth phase. One day before transfection, the cells were seeded into a 96-well culture plate at an appropriate cell density and grown overnight. At the time of transfection, the cell confluency needed to reach 70-90%. The lipid nanoparticle compositions prepared from each exemplary compound were diluted into 4 different dose concentrations with DMEM and added to the 96-well cell culture plate, resulting in final concentrations of 400 ng, 200 ng, 100 ng and 50 ng per well, respectively. luciferase plasmid transfected using Lipofectamine 2000 was used as the positive control (PC). After incubation for 24 h in a 5% CO2 incubator at 37°C, the substrate was added to the wells, and the luciferase activity was determined using a microplate reader. […] The luciferase activity of the luciferase mRNA lipid nanoparticles prepared from Compound 1005 in HEK293T cells is shown in Fig. 1.

[5] = tested on: female Balb/c mice; assay: In vivo transfection efficiency and safety of luciferase mRNA lipid nanoparticles (whole-body live imaging); settings: tail vein injection, single dose 0.3 mpk, 6 h after administration
Protocol: as §1
6-8 week-old female Balb/c mice were used to evaluate the in vivo transfection efficiency and safety of lipid nanoparticle compositions prepared from each exemplary compound. The lipid nanoparticles prepared from each exemplary compound were administered by tail vein injection at a single dose of 0.3 mpk. At specific time points after administration (e.g., 3 h, 6 h), live imaging of the animals was performed using a PerkinElmer small animal imaging system to determine the bioluminescent signal. The whole-body live imaging of mice at 3 h/6 h after intravenous administration of luciferase mRNA lipid nanoparticles prepared from Compound 1008 is shown in Fig. 2. […] Table 3 Summary of in vitro/in vivo Activity Evaluation of Lipid Nanoparticles Prepared from Compounds

[6] = Apparent pKa of blank lipid nanoparticles by TNS fluorescence; format: physicochemical; settings: compound:DSPC:cholesterol:ALC-0159 50:10:38.5:1.5, pH 2 to 11
Protocol: The apparent pKa of lipid nanoparticles is correlated with the efficacy of lipid nanoparticles in delivering nucleic acids (see Jayaraman et al., Angewandte Chemie, International Edition (2012), 51(34), 8529-8533; Semple et al., Nature Biotechnology 28, 172-176 (2010)). The apparent pKa of nanoparticles prepared from different lipid compounds was determined using fluorescence based on 2-(p-toluidino)-6-naphthalenesulfonic acid (TNS). The fluorescent probe has no fluorescence in water but […] emits fluorescence when bound to lipid membranes. Blank lipid nanoparticles were prepared at a molar ratio of ionizable cationic lipid compound (each exemplary compound) : DSPC : cholesterol : 2-[(polyethylene glycol)-2000]-N,N-ditetradecylacetamide (ALC-0159) of 50:10:38.5:1.5. They were diluted in different pH buffer solutions having a pH ranging from 2 to 11. An aqueous TNS solution was added and mixed. Then, the mixtures were added to a 96-well plate (black bottom), respectively. Detection was performed with excitation wavelength at 325 nm and the emission wavelength at 435 nm, with top detection. Measurement was performed 10 times for each well, and the fluorescence intensity was recorded. A pH-fluorescence intensity curve was plotted to determine the apparent pKa.

Particle Size [1] [nm]	Polydispersity Index (PDI) [1]	Zeta Potential [2] [mV]	Encapsulation Rate [3] [%]	Apparent pKa [6]	SMILES	HEK 293T Cell Luciferase Activity [4]	Mouse Whole-Body Average Fluorescence Signal [5]	fluorescence intensity of luciferase expressed in HEK 293T cells ([4]; different doses (50-400 ng per well), Fig. 1)
94.71	0.115	-0.327	88.9	–	CCCCCCCCCCCCCCCC(CC)C(=O)OCC(COC(=O)C(CC)CCCCCCCCCCCCCCC)(COC(=O)C(CC)CCCCCCCCCCCCCCC)NCCN(C)CCCCO (stereo not shown) [Compound 3424]	1.81×10^4 RLU	9.34×10^4 p/s/cm^2/sr	–
85.78	0.068	-4.98	95.9	5.13	CCCCCCCCCCCC(CCCCCC)C(=O)OCC(COC(=O)C(CCCCCC)CCCCCCCCCCC)(COC(=O)C(CCCCCC)CCCCCCCCCCC)NCCC(=O)NCCN(C)C (stereo not shown) [Compound 1007]	1.60×10^5 RLU	1.34×10^6 p/s/cm^2/sr	–
55.44	0.076	-0.105	91.7	6.10	CCCCCCCCCCCCCCCC(CC)C(=O)OCC(COC(=O)C(CC)CCCCCCCCCCCCCCC)(COC(=O)C(CC)CCCCCCCCCCCCCCC)NCCC(=O)NCCN(C)C (stereo not shown) [Compound 1005]	1.01×10^8 RLU	1.21×10^6 p/s/cm^2/sr	> 10^7 RLU
82.41	0.123	-2.23	90.7	5.75	CCCCCCCCCCCCCCCC(CC)C(=O)OCC(COC(=O)C(CC)CCCCCCCCCCCCCCC)(COC(=O)C(CC)CCCCCCCCCCCCCCC)NCCC(=O)NCCN(CCCC)CCCC (stereo not shown) [Compound 1013]	9.87×10^4 RLU	1.69×10^4 p/s/cm^2/sr	–
70.81	0.126	3.8	96.1	–	CCCCCCCCCCCCCCCC(CC)C(=O)OCC(COC(=O)C(CC)CCCCCCCCCCCCCCC)(COC(=O)C(CC)CCCCCCCCCCCCCCC)NC(=O)CNCCN(C)CCCCO (stereo not shown) [Compound 3427]	5.18×10^5 RLU	8.24×10^6 p/s/cm^2/sr	–
85.51	0.104	2.23	95.5	–	CCCCCCCCCCCCCCCC(CC)C(=O)OCC(COC(=O)C(CC)CCCCCCCCCCCCCCC)(COC(=O)C(CC)CCCCCCCCCCCCCCC)NCCCCCCN(C)CCCCO (stereo not shown) [Compound 3426]	3.01×10^5 RLU	5.67×10^6 p/s/cm^2/sr	–
87.5	0.086	-18.6	96.0	–	CCCCCCCCCC(CCCCCCCC)C(=O)OCC(COC(=O)C(CCCCCCCC)CCCCCCCCC)(COC(=O)C(CCCCCCCC)CCCCCCCCC)NC(=O)CNCCN(C)CCCCO (stereo not shown) [Compound 3423]	3.97×10^5 RLU	5.53×10^5 p/s/cm^2/sr	–
82.37	0.021	-21.2	89.4	–	CCCCCCCCCC(CCCCCCCC)C(=O)OCC(COC(=O)C(CCCCCCCC)CCCCCCCCC)(COC(=O)C(CCCCCCCC)CCCCCCCCC)NCCN(C)CCCCO (racemic) [Compound 3425]	6.86×10^6 RLU	1.56×10^7 p/s/cm^2/sr	–
85.4	0.111	3.06	70.3	–	CCCCCCCCCCCCCCCC(CC)C(=O)OCC(COC(=O)C(CC)CCCCCCCCCCCCCCC)(COC(=O)C(CC)CCCCCCCCCCCCCCC)NCCC(=O)NCCN(CCO)CCO (racemic) [Compound 1014]	2.86×10^6 RLU	3.55×10^4 p/s/cm^2/sr	–
74.13	0.064	-7.8	91.1	–	CCCCCCCCCC(CCCCCCCC)C(=O)OCC(COC(=O)C(CCCCCCCC)CCCCCCCCC)(COC(=O)C(CCCCCCCC)CCCCCCCCC)NCCC(=O)NCCN(C)CCn1cnc2c(N)ncnc21 (stereo not shown) [Compound 1139]	4.23×10^5 RLU	3.87×10^5 p/s/cm^2/sr	–
110.3	0.103	-0.902	83.2	–	CCCCCCCCCC(CCCCCCCC)C(=O)OCC(COC(=O)C(CCCCCCCC)CCCCCCCCC)(COC(=O)C(CCCCCCCC)CCCCCCCCC)NCCC(=O)NCCN1CCNCC1 (stereo not shown) [Compound 1111]	3.29×10^4 RLU	3.10×10^5 p/s/cm^2/sr	–
83.84	0.046	-17.8	96.6	–	CCCCCCCCCC(CCCCCCCC)C(=O)OCC(COC(=O)C(CCCCCCCC)CCCCCCCCC)(COC(=O)C(CCCCCCCC)CCCCCCCCC)NCCCCN(C)CCCCO (stereo not shown) [Compound 3428]	3.23×10^5 RLU	2.04×10^5 p/s/cm^2/sr	–
77.74	0.072	2.84	64.5	–	CCCCCCCCCCCCCCCC(CC)C(=O)OCC(COC(=O)C(CC)CCCCCCCCCCCCCCC)(COC(=O)C(CC)CCCCCCCCCCCCCCC)NCCC(=O)NCCN(C)CCO (stereo not shown) [Compound 1025]	–	4.20×10^5 p/s/cm^2/sr	–
62.59	0.127	-3.64	95.4	–	CCCCCCCCCCCCCCCC(CC)C(=O)OCC(COC(=O)C(CC)CCCCCCCCCCCCCCC)(COC(=O)C(CC)CCCCCCCCCCCCCCC)NC(=O)CN (stereo not shown) [Compound 1003]	–	–	–
102.3	0.136	4.27	80.3	–	CCCCCCCCCCCCCCCC(CC)C(=O)OCC(COC(=O)C(CC)CCCCCCCCCCCCCCC)(COC(=O)C(CC)CCCCCCCCCCCCCCC)NCCC(=O)NCCN(CCCO)CCCO (stereo not shown) [Compound 1015]	6.27×10^7 RLU	1.43×10^4 p/s/cm^2/sr	–

SMILES	Particle Size [1] [nm]	Polydispersity Index (PDI) [1]	Zeta Potential [2] [mV]	Encapsulation Rate [3] [%]	Apparent pKa [6]	HEK 293T Cell Luciferase Activity [4]	Mouse Whole-Body Average Fluorescence Signal [5]	fluorescence intensity of luciferase expressed in HEK 293T cells ([4]; different doses (50-400 ng per well), Fig. 1)
CCCCCCCCCCCCCCCC(CC)C(=O)OCC(COC(=O)C(CC)CCCCCCCCCCCCCCC)(COC(=O)C(CC)CCCCCCCCCCCCCCC)NCCC(=O)NCCN(C)CCNC(=N)N (stereo not shown) [Compound 1140]	63.21	0.127	4.39	92.4	–	2.13×10^4 RLU	6.21×10^4 p/s/cm^2/sr	–
